The results in this text go back to article PMC9405973, “Altered Conformational Landscape upon Sensing Guanine Nucleotides in a Disease Mutant of Elongation Factor-like 1 (EFL1) GTPase” (Biomolecules, 2022).

For the assay, the target named is T1, Efl1 R1086Q P151L (Saccharomyces cerevisiae, UniProt P53893, P151L/R1086Q).
T1 construct: made in house; host or cells: Saccharomyces cerevisiae
The assay can be described thus: ITC: binding of GTP to double mutant Efl1 R1086Q P151L. The settings on record: +Mg^2+. For orientation: ITC needs no label: the signal is the heat of the interaction.

Where “and” joins values, the source holds several entries; their conditions need not be identical. Equal entries are not always repeated.

T1 sequence (P53893 whole entry P151L/R1086Q): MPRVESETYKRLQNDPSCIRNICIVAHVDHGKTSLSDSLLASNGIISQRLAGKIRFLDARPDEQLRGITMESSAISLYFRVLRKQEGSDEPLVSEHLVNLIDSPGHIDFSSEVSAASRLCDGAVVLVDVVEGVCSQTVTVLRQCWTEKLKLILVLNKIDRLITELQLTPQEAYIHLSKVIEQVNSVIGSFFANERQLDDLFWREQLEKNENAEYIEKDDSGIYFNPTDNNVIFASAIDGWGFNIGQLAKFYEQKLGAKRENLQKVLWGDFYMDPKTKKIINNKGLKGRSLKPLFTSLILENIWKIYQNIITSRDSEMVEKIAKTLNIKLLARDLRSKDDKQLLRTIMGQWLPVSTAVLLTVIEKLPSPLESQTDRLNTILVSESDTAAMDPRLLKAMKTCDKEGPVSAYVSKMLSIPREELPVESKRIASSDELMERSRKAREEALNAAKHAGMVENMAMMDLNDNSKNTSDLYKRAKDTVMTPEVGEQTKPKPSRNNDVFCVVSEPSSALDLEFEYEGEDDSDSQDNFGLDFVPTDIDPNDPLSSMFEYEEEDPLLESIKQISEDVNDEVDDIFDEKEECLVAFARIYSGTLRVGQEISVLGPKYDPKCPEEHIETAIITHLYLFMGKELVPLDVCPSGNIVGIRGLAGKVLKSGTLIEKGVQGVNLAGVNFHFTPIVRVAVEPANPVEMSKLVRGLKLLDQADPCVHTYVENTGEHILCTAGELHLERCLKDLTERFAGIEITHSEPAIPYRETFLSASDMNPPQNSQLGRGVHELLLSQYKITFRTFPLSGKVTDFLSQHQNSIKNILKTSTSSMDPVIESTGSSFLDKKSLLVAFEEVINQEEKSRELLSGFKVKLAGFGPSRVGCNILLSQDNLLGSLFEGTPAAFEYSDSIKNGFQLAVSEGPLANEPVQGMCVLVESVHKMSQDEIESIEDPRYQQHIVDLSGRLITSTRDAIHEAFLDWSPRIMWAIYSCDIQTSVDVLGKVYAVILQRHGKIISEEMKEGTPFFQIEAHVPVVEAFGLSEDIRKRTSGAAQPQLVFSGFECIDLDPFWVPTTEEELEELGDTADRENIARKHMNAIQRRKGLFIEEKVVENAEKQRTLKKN

On to `Nc1nc2c(ncn2[C@@H]2O[C@H](COP(=O)(O)OP(=O)(O)OP(=O)(O)O)[C@@H](O)[C@H]2O)c(=O)[nH]1` [GTP], for which, where the note is “25 °C”, the “-TΔSb” value is -4.8 kcal/mol, the ΔGb was -6.5 kcal/mol, the ΔHb is -1.7 ± 0.1 kcal/mol and the Kd was 18 ± 3 µM. Moreover, under “30 °C”, the “-TΔSb” value is -4.1 kcal/mol; the “Nconfres (number of residues changing conformation, absolute value)” value is given as 19; the “Nconfrotb (number of routable bonds changing conformation, absolute value)” value was 19; the ΔCpconf was −195 cal mol^−1 K^−1. Where the note is “30 °C”, this compound yielded a ΔCprb of −25 cal mol^−1 K^−1, a ΔGb of -6.6 kcal/mol, a ΔHb of -2.5 ± 0.1 kcal/mol and a ΔSb of 13 cal mol^−1 K^−1. In addition, under “30 °C”, the ΔSconf is −31 cal mol^−1 K^−1, the ΔSsolv turned out to be 53 cal mol^−1 K^−1, the “−ΔASAconf” value is reported as 875 Å^2 and the Kd worked out at 17 ± 2 µM. Moreover, under “35 °C”, the “-TΔSb” value is -2.8 kcal/mol, the ΔGb was -6.7 kcal/mol, the ΔHb was -3.9 ± 0.1 kcal/mol and the Kd was 18 ± 2 µM. In addition, for the setting “from ΔHb at 25–35 °C”, the ΔCpb is −220 ± 35 cal mol^−1 K^−1 and −220 cal mol^−1 K^−1.

In general, Kd refers to the concentration at which binding is half-saturated. Higher therefore signals lower affinity.
